Three substances from patent publication US6599501B1, “Immunomodulators” (Steeno Research Group A/S, priority 1994, dated 2003) can be followed below.

What all share (format): cell-based
Data set [1] deals with spontaneous IL-8 production by human monocytes. As to the kind of experiment: Spontaneous IL-8 production by purified cultured human monocytes (IL-8 ELISA). To be noted: any concentration of IT9302 between 0.1 and 1000 ng/ml; this and following examples.
Data set [2] has as its system IL-1β induced IL-8 production by human peripheral blood mononuclear cells (PBMC). As to the kind of experiment: IL-1β induced IL-8 production by human peripheral blood mononuclear cells (IL-8 ELISA). To be noted: r-hIL-1β 1 ng/ml; 48 hours total incubation. Here is the method: PBMC was purified from heparinized blood of normal human donors. Following gradient centrifugation with-Lymphoprep™ (Nycomed Pharma, Oslo, Norway), the mononuclear cells were diluted to 2×10^6 cells/ml in LPS-free RPMI 1640 medium (Gibco Cat.No. 6187-010) containing 1% sterile filtered heat-inactivated fetal calf serum and penicillin (10,000 IE/ml), streptomycin (10 mg/ml) and gentamycin (2.5 mg/ml). Cells were cultured in 24 wells Nunc Micro Plates (Nunc, Denmark) and in the presence of different concentration of IT9302 (0, 1 μg, 100 ng, 10 ng, 1 ng, 0.1 ng, 0.01 ng/ml) for 24 hours. Following 24 hours of incubation, another dose of IT9302 was added once more, and 1 hour later r-hIL-1β (1 ng/ml) was added to the cell cultures. Supernatants were collected after a total of 48 hours of incubation, and the concentration of the secreted IL-8 was measured by IL-8 ELISA by using an IL-8 ELISA Kit (Dainippon Pharmaceutical Co. Ltd, Osaka, Japan). Briefly, standards and cell supernatants were incubated for one hour and in duplicates at 20° C. on a micro-plate shaker. Then after washing, a second antibody was added for one hour, followed by one hour of incubation with peroxidase-labelled goat anti-rabbit IgG. […] Optical density (OD) was measured in an ELISA reader at 490 nm. IL-8 concentration was calculated by a calibration curve of absorbance of unknown vs concentrations of IL-8 standards. […]
A general note: An ELISA detects its analyte on a solid surface through an enzyme-linked reagent.

Data set [3] has as its system IRAP production by human monocytes. The experiment in a line: Production of interleukin-1 receptor antagonist protein (IRAP) by human monocytes (IRAP ELISA). To be noted: monocytes stimulated 24 hours. Here is the method:
PBMC was purified as described above. PBMC was cultured in RMPI 1640, 10% sterile heat-inactivated fetal calf serum (including penicillin 10,000 IE/ml, streptomycin 10 mg/ml, gentamycin 2.5 mg/ml) and the cell concentration was 5×10^6 cells/ml. The monocytes were then purified by standard plastic adherence technique. Monocytes were then cultured in RPMI 1640 with 2% FCS (2.5×10^6 cells/ml) and with different dilutions of rhIL-10 or IT9302. The cells were stimulated for 24 hours and the supernatants were collected for IRAP determination. IRAP ELISA was carried out by using Human IL-1ra Quantikin Immunoassay Kit from R&D Systems Europe Ltd. (Cat.No. DRA 00, Abingdon, Oxon, UK).
The test was performed as described in “Determination of IRAP concentration”.

In data set [4] the test system is class II MHC molecule expression on human monocytes. As to the kind of experiment: Class II MHC antigen expression on monocytes (rosetting with HLA class II Dynabeads). Here is the method:
PBMC was purified as described above and monocytes isolated by plastic adherence technique. Monocytes were then cultured in RPMI 1640 with 2% FCS including penicillin 10,000 IE/ml, streptomycin 10 mg/ml, gentamycin 2.5 mg/ml at a cell concentration of 3×10^6/ml. Cells were stimulated for 40 hours in microwells (Nunc, Denmark) with 100 ng/ml rhIL-10, or IT9302 1 μg/ml, 100 ng/ml, 10 ng/ml. At the end of stimulation, the supernatants were removed and the cells were detached from the plastic by freezing at −20° C. for 20 minutes. The cells were collected in 1 ml of cold HBSS with 1% FCS and sorted at 20° C. by using 50 μl/ml Dynabeads M 450 coated with monoclonal antibody for HLA class II β chain (Cat. No. 210.03). After 20 minutes of incubation, the cells were washed 3 times with cold HBSS with 1% FCS and collected on a magnetic separation device. The cells were diluted in the above buffer and stained with methylene blue, and the resetting cells (cells carrying Dynabeads with HLA class II mAb) were counted.

Data set [5] has as its system IL-4 production by cultured normal human CD4+ T cells. The experiment in a line: IL-4 production by CD4+ T lymphocytes (ECL-Western blotting). The note with it: 100 ng/ml, 3 days, cytosolic fractions. Here is the method: CD4+ T lymphocytes were purified from heparinized normal human blood. Following Lymphoprep™ (Nycomed Pharma, Oslo, Norway) gradient centrifugation, the mononuclear cells were further sorted at 4° C. using Dynabeads (Dynal AS, Norway) coated with monoclonal anti-CD4 antibodies. The beads were detached by adding polyclonal anti-mouse antibody (Dynal AS, Norway). The purity of the positively selected cells were higher than 99% as judged by FACS analysis. […]
Cells or freeze-dried cell culture supernatants were used for IL-4 protein content determination. […] The blots were then incubated with a polyclonal goat anti-human IL-4 antibody (R&D Systems, UK) followed by a horseradish peroxidase-labelled secondary antibody (Cat.no. RPN 2106 ECL, Amersham, UK), and the immunostaining was detected by exposing a film (Kodak X-OMAT-S, USA) for 90 seconds.
Thus, CD4+ T cells, purified as described in “Methods for T cell chemotaxis”, and cultured as described in the section “Determination of IL-4 production by CD4+ T lymphocytes”, were stimulated for 3 days with IT9302 (10 ng/ml) or IL-10 (100 ng/ml). Cytosolic fractions were collected and analyzed for their IL-4 content using Western blotting (FIG. 11) and a goat anti-human IL-4 polyclonal antibody.
A general note: Immunoblotting shows a protein as a band on a membrane.

With “H-AYMTMKIRN-OH [IT9302, NH2-Ala-Tyr-Met-Thr-Met-Lys-Ile-Arg-Asn-COOH]”, the “effect on viability of cells” value in data set [1] is on record as “did not in this or in the following examples affect viability”.

Consider “NH2-Ser-Pro-Gly-Gln-Gly-Thr-Gln-Ser-Glu-COOH (H-SPGQGTQSE-OH) [IT9301, nonapeptide from the N-terminal end of hIL-10, control for negative results]”, for which the “inhibition of IL-1β induced production of IL-8” value in data set [2] is reported as “did not induce any inhibition at all”.

For the substance “rhIL-10: Recombinant human interleukin 10 obtained from Pepro Tech Inc.”, the “induction of IRAP production” value in data set [3] is “induction of IRAP”. Besides, in data set [4] (40 hours stimulation), the “inhibition of class II MHC expression” value is “inhibits class II MHC expression”. Moreover, in data set [4] (stimulation 100 ng/ml, 40 hours), the “Number of rosetting monocytes” value is 4.6 ± 1.4 × 10^4. Further, the “production of IL-4 by CD4+ T cells” value in data set [5] is “induce the production of IL-4”.
